Laboratory results as given in patent US8691753B2 (priority 2009, dated 2014).
Where two headings read alike, the source gives them in different places.

Assays:
Format in all cases: biochemical
MMP-2h = MMP-2h (Homo sapiens (Human), UniProt P08253); assay: Inhibition constant (Ki) on MMP-2h; conditions: human MMP-2
How it was run: (§1)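 Compounds are evaluated on human MMPs, and Ki is derived as set out in an earlier publication.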

MMP-9h = MMP-9h (Homo sapiens (Human), UniProt P14780); assay: Inhibition constant (Ki) on MMP-9h; conditions: human MMP-9
MMP-9h, sequence (P14780 94-707): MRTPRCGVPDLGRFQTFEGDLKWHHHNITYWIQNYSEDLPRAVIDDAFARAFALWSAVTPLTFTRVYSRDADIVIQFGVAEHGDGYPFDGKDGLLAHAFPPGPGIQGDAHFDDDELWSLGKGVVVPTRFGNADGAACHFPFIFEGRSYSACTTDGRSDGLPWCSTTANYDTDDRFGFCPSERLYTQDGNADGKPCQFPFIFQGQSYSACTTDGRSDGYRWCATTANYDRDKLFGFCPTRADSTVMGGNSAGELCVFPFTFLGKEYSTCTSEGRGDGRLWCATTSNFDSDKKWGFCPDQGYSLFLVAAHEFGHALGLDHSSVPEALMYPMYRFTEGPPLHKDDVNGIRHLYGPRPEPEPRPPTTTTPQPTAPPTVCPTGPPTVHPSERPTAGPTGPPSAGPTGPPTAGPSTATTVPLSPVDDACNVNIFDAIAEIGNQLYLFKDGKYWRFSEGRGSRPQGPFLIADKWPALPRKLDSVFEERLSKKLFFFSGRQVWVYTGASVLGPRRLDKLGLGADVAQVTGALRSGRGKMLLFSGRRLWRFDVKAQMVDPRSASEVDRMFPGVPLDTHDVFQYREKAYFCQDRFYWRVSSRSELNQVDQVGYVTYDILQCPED
How it was run: as §1

MMP-10h = MMP-10h (Homo sapiens (Human), UniProt P09238); assay: Inhibition constant (Ki) on MMP-10h; conditions: human MMP-10
MMP-10h, sequence (P09238 99-476): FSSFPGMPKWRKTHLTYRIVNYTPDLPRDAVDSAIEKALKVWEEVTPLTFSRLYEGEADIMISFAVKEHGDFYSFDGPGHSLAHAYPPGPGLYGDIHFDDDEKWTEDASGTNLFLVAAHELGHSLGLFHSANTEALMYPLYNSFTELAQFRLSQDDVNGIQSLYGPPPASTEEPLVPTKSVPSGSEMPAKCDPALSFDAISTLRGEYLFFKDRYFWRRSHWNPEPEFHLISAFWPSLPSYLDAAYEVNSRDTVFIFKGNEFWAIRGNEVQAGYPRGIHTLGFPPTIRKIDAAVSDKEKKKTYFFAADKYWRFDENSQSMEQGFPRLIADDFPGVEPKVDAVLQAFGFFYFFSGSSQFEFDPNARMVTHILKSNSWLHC

MMP-12h = MMP-12h (Homo sapiens (Human), UniProt P39900); assay: Inhibition constant (Ki) on MMP-12h; conditions: human MMP-12
MMP-12h, sequence (P39900 106-470): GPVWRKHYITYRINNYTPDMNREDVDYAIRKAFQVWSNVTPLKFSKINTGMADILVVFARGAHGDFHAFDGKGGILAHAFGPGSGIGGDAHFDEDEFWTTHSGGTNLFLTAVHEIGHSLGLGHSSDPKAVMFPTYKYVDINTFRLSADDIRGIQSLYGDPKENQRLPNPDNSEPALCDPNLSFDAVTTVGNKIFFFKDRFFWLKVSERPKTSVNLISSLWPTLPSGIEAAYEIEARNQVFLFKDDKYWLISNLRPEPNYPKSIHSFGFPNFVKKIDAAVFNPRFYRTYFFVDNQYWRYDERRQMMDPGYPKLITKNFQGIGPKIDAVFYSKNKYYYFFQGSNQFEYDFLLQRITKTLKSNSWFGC

MMP-13h = MMP-13h (Homo sapiens (Human), UniProt P45452); assay: Inhibition constant (Ki) on MMP-13h; conditions: human MMP-13
How it was run: as §1

MMP-14h = MMP-14h (Homo sapiens (Human), UniProt P50281); assay: Inhibition constant (Ki) on MMP-14h; conditions: human MMP-14
How it was run: as §1

MMP-8h = MMP-8h (Homo sapiens (Human), UniProt P22894); assay: Inhibition constant (Ki) on MMP-8h; conditions: human MMP-8
MMP-8h, sequence (P22894 101-467): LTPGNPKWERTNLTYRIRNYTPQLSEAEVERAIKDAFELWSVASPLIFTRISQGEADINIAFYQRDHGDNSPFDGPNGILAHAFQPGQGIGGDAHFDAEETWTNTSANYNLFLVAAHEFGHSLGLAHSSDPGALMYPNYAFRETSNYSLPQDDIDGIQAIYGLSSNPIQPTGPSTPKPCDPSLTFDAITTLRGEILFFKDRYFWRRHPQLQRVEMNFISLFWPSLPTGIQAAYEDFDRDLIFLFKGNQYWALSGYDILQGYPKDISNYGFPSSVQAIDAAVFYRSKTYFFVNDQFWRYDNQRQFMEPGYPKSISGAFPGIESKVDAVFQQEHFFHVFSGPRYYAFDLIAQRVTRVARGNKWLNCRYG

MMP-3h = MMP-3h (Homo sapiens (Human), UniProt P08254); assay: Inhibition constant (Ki) on MMP-3h; conditions: human MMP-3
MMP-3h, sequence (P08254 100-477): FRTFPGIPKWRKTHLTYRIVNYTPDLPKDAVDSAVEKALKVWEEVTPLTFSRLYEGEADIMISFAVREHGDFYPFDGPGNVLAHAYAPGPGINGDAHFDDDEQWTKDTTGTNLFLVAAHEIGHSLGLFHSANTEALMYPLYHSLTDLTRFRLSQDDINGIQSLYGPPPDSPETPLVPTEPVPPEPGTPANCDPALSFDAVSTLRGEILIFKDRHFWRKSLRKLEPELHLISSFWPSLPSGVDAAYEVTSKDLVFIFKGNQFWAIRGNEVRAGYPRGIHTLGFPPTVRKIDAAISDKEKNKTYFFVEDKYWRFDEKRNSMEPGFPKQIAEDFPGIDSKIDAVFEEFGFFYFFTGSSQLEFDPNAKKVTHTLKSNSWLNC
How it was run: as §1

MMP-2h, sequence (P08253 110-660): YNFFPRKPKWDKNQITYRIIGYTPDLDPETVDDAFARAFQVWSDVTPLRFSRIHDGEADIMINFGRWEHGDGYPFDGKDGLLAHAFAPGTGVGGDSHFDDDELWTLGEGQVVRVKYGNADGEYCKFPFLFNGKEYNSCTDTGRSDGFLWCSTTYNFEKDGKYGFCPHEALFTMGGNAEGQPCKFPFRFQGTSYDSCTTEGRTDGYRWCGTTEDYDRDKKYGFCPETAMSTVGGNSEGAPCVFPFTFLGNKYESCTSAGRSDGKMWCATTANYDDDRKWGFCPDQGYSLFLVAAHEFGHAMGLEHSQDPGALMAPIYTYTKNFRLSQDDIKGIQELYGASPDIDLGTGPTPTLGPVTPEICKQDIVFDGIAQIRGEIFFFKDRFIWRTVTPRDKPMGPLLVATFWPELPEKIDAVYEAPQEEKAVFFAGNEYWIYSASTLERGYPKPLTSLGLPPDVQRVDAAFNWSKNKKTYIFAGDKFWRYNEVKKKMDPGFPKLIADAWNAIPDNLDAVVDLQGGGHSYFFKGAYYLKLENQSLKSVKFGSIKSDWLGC

SMILES: NC(=O)CC[C@H](NC(=O)[C@H](CCC(=O)O)NC(=O)CCc1ccc(-c2cccs2)cc1)C(N)=O [Compound 81, (S)-5-((S)-1,5-diamino-1,5-dioxopentan-2-ylamino)-5-oxo-4-(3-(4-(thiophen-2-yl)phenyl)propanamido)pentanoic acid]
- Ki (MMP-2h; read-out: Ki MMP-2h): 204 nM
- Ki (MMP-9h; read-out: Ki MMP-9h): > 1000 nM
- Ki (MMP-10h; read-out: Ki MMP-10h): 651 nM
- Ki (MMP-12h; read-out: Ki MMP-12h): 18.6 nM
- Ki (MMP-13h; read-out: Ki MMP-13h): 801 nM
- Ki (MMP-14h; read-out: Ki MMP-14h): > 1000 nM
- Ki (MMP-8h; read-out: Ki MMP-8h): 48 nM
- Ki (MMP-3h; read-out: Ki MMP-3h): > 10000 nM

SMILES: NC(=O)[C@H](CCC(=O)O)NC(=O)[C@H](CCC(=O)O)NC(=O)CCc1ccc(-c2nccs2)cc1 [Compound 37, (S)-5-amino-4-((S)-4-carboxy-2-(3-(4-(thiazol-2-yl)phenyl)propanamido)butanamido)-5-oxopentanoic acid]
- Ki (MMP-2h): 657 nM
- Ki (MMP-9h): > 1000 nM
- Ki (MMP-10h): > 1000 nM
- Ki (MMP-12h): 369 nM
- Ki (MMP-13h): 240 nM
- Ki (MMP-14h): > 1000 nM
- Ki (MMP-8h): > 1000 nM
- Ki (MMP-3h): > 5000 nM

SMILES: NC(=O)[C@H](CC(=O)O)NC(=O)[C@H](CC(=O)O)NC(=O)CCc1cc(-c2ccc(-c3cccc(Cl)c3)cc2)no1 [Compound 10, (S)-4-amino-3-((S)-3-carboxy-2-(3-(3-(3′-chlorobiphenyl-4-yl)isoxazol-5-yl)propanamido)propanamido)-4-oxobutanoic acid]
- Ki (MMP-2h; read-out: Ki MMP-2h): 86 nM
- Ki (MMP-9h; read-out: Ki MMP-9h): > 1000 nM
- Ki (MMP-10h; read-out: Ki MMP-10h): 93 nM
- Ki (MMP-12h; read-out: Ki MMP-12h): 59 nM
- Ki (MMP-13h; read-out: Ki MMP-13h): 18 nM
- Ki (MMP-14h; read-out: Ki MMP-14h): > 1000 nM
- Ki (MMP-8h; read-out: Ki MMP-8h): 649 nM
- Ki (MMP-3h; read-out: Ki MMP-3h): 85 nM

SMILES: NC(=O)[C@H](CCC(=O)O)NC(=O)[C@H](CCC(=O)O)NC(=O)CCc1ccc(COc2ccccc2)cc1 [Compound 29, (S)-5-amino-4-((S)-4-carboxy-2-(3-(4-(phenoxymethyl)phenyl)propanamido)butanamido)-5-oxopentanoic acid]
- Ki (MMP-2h; read-out: Ki MMP-2h): > 1000 nM
- Ki (MMP-9h; read-out: Ki MMP-9h): > 1000 nM
- Ki (MMP-10h; read-out: Ki MMP-10h): > 1000 nM
- Ki (MMP-12h; read-out: Ki MMP-12h): 469 nM
- Ki (MMP-13h; read-out: Ki MMP-13h): 117 nM
- Ki (MMP-14h; read-out: Ki MMP-14h): > 5000 nM
- Ki (MMP-8h; read-out: Ki MMP-8h): > 1000 nM
- Ki (MMP-3h; read-out: Ki MMP-3h): > 10000 nM

SMILES: NC(=O)[C@H](CCC(=O)O)NC(=O)[C@H](CCC(=O)O)NC(=O)CCc1ccc(-c2cccc(O)c2)cc1 [Compound 54, (S)-5-amino-4-((S)-4-carboxy-2-(3-(3′-hydroxybiphenyl-4-yl)propanamido)butanamido)-5-oxopentanoic acid]
- Ki (MMP-2h; read-out: Ki MMP-2h): > 10000 nM
- Ki (MMP-9h; read-out: Ki MMP-9h): > 1000 nM
- Ki (MMP-10h; read-out: Ki MMP-10h): > 1000 nM
- Ki (MMP-12h; read-out: Ki MMP-12h): 176 nM
- Ki (MMP-13h; read-out: Ki MMP-13h): > 10000 nM
- Ki (MMP-14h; read-out: Ki MMP-14h): > 10000 nM
- Ki (MMP-8h; read-out: Ki MMP-8h): > 1000 nM
- Ki (MMP-3h; read-out: Ki MMP-3h): > 10000 nM

SMILES: NC(=O)[C@H](Cc1ccc(O)cc1)NC(=O)[C@H](CCC(=O)O)NC(=O)CCc1ccc(-c2ccccc2)cc1 [Compound 46, (S)-5-((S)-1-amino-3-(4-hydroxyphenyl)-1-oxopropan-2-ylamino)-4-(3-(biphenyl-4-yl)propanamido)-5-oxopentanoic acid]
- Ki (MMP-2h; read-out: Ki MMP-2h): 632 nM
- Ki (MMP-9h; read-out: Ki MMP-9h): > 1000 nM
- Ki (MMP-10h; read-out: Ki MMP-10h): > 1000 nM
- Ki (MMP-12h; read-out: Ki MMP-12h): 52 nM
- Ki (MMP-13h; read-out: Ki MMP-13h): > 1000 nM
- Ki (MMP-14h; read-out: Ki MMP-14h): > 5000 nM
- Ki (MMP-8h; read-out: Ki MMP-8h): 270 nM
- Ki (MMP-3h; read-out: Ki MMP-3h): > 10000 nM

SMILES: NC(=O)[C@H](CCC(=O)O)NC(=O)[C@@H](CCC(=O)O)NC(=O)CCc1cc(-c2ccc(-c3cccc(Cl)c3)cc2)no1 [Compound 6, (S)-5-amino-4-((R)-4-carboxy-2-(3-(3-(3′-chlorobiphenyl-4-yl)isoxazol-5-yl)propanamido)butanamido)-5-oxopentanoic acid]
- Ki (MMP-2h; read-out: Ki MMP-2h): 403 nM
- Ki (MMP-9h; read-out: Ki MMP-9h): > 5000 nM
- Ki (MMP-10h; read-out: Ki MMP-10h): 489 nM
- Ki (MMP-12h; read-out: Ki MMP-12h): 401 nM
- Ki (MMP-13h; read-out: Ki MMP-13h): 235 nM
- Ki (MMP-14h; read-out: Ki MMP-14h): > 10000 nM
- Ki (MMP-8h; read-out: Ki MMP-8h): > 5000 nM
- Ki (MMP-3h; read-out: Ki MMP-3h): > 1000 nM

SMILES: NC(=O)[C@H](CCC(=O)O)NC(=O)[C@H](CCC(=O)O)NC(=O)CCc1ccc(-c2cccc(N)c2)cc1 [Compound 53, (S)-5-amino-4-((S)-2-(3-(3′-aminobiphenyl-4-yl)propanamido)-4-carboxybutanamido)-5-oxopentanoic acid]
- Ki (MMP-2h; read-out: Ki MMP-2h): > 1000 nM
- Ki (MMP-9h; read-out: Ki MMP-9h): > 1000 nM
- Ki (MMP-10h; read-out: Ki MMP-10h): > 1000 nM
- Ki (MMP-12h; read-out: Ki MMP-12h): 190 nM
- Ki (MMP-13h; read-out: Ki MMP-13h): > 1000 nM
- Ki (MMP-14h; read-out: Ki MMP-14h): > 1000 nM
- Ki (MMP-8h; read-out: Ki MMP-8h): > 1000 nM
- Ki (MMP-3h; read-out: Ki MMP-3h): > 1000 nM
